The record followed here is patent US20250290117A1, “MOLECULAR PHENOTYPIC ANTIMICROBIAL SUSCEPTIBILITY TESTING” (priority 2024, published 2025).

One test deals with Escherichia coli. The experiment in a line: Traditional culture-based antimicrobial susceptibility test. Format: cell-based. The method, boiled down:
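E. coli isolates underwent conventional growth, isolation and exposure to antimicrobials, giving a culture-based susceptibility call for each agent.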

Another test has as its system pathogen of the specimen. The experiment in a line: Molecular phenotypic antimicrobial susceptibility test with direct PCR at various incubation timepoints (Table 7). It is filed as cell-based. The method in brief:
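Specimens with known microbial load are cultured, diluted to 0.5 McFarland using optical density, then exposed to antimicrobials prepared in liquid culture media (e.g., Muller Hinton Broth) at their established sensitivity breakpoint concentrations. After incubation, samples are lysed with buffer in a thermal cycler and analyzed by direct semi-quantitative PCR, with antimicrobial-free control wells serving as the susceptibility threshold.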

Setting [1] is: E. coli isolate 1189, antibiotic incubation time 4 hours.
Where [2] appears, read: E. coli isolate 1189, antibiotic incubation time 4 hours, control average Ct […].
Where [3] appears, read: E. coli isolate 1189, antibiotic incubation time 6 hours.
[4] abbreviates: E. coli isolate 1189, antibiotic incubation time 6 hours, control average Ct 16.992.
[5] abbreviates: E. coli isolate 1189, antibiotic incubation time 8 hours.
The mark [6] stands for this setting: E. coli isolate 1189, antibiotic incubation time 8 hours, control average Ct […].
Setting [7] is: E. coli isolate 1189, antibiotic incubation time 10 hours.
[8] abbreviates: E. coli isolate 1189, antibiotic incubation time 10 hours, control average Ct 15.995.
[9] abbreviates: E. coli isolate 1189, antibiotic incubation time 12 hours.
Setting [10] is: E. coli isolate 1189, antibiotic incubation time 12 hours, control average Ct 15.495.
Setting [11] is: E. coli isolate 1189, antibiotic incubation time 14 hours.
Where [12] appears, read: E. coli isolate 1189, antibiotic incubation time 14 hours, control average Ct 15.826.
The mark [13] stands for this setting: E. coli isolate 1189, antibiotic incubation time 16 hours.
Setting [14] is: E. coli isolate 1189, antibiotic incubation time 16 hours, control average Ct 14.880.
Where [15] appears, read: E. coli #1 - WDCM 00090 - 6.2×E3.
Where [16] appears, read: E. coli #2 - WDCM 00090 - 6.2×E3.

As to `C[C@@H](O)[C@H]1C(=O)N2C(C(=O)O)=C(S[C@@H]3CN[C@H](C(=O)N(C)C)C3)[C@H](C)[C@H]12` [Meropenem], the “Traditional Culture Result” value in the test with Escherichia coli (E. coli isolate 1 (Table 3)), with Escherichia coli (E. coli isolate 2 (Table 3)), in the test with Escherichia coli (E. coli isolate 3 (Table 3)) and in the test on Escherichia coli (E. coli isolate JJ1887) was “Sensitive” each time. Moreover, the “Molecular Antimicrobial Susceptibility Result” value with pathogen of the specimen (setting [1]), with pathogen of the specimen (setting [3]), in the test on pathogen of the specimen (setting [5]), in the test with pathogen of the specimen (setting [7]), with pathogen of the specimen (setting [9]) and in the test with pathogen of the specimen (setting [11]) was “Sensitive (Antimicrobial wells with pathogen load detected below the control wells (typically >2 cycle thresholds later) may be reported as Sensitive)” throughout. In the test with pathogen of the specimen (setting [13]), the “Molecular Antimicrobial Susceptibility Result” value is “Sensitive (Antimicrobial wells with pathogen load detected below the control wells (typically >2 cycle thresholds later) may be reported as Sensitive)”. Besides, the “Ct at Sensitive Breakpoint” value in the test on pathogen of the specimen (setting [2]) was 22.751; in the test with pathogen of the specimen (setting [4]), 22.884; with pathogen of the specimen (setting [6]), 23.187; in the test on pathogen of the specimen (setting [8]) it was 23.901; in the test on pathogen of the specimen (setting [10]), 26.014; in the test with pathogen of the specimen (setting [12]) it was 26.211. Moreover, in the test with pathogen of the specimen (setting [14]), the “Ct at Sensitive Breakpoint” value stood at 27.457.

On to Gentamicin, for which the “Traditional Culture Results” value in the test with Escherichia coli (setting [15]) and in the test on Escherichia coli (setting [16]) was “Sensitive” in each case. Moreover, the “Traditional Culture Result” value with Escherichia coli (E. coli isolate 1 (Table 3)) is recorded as “Sensitive”; in the test on Escherichia coli (E. coli isolate 2 (Table 3)), “Sensitive”; in the test on Escherichia coli (E. coli isolate 3 (Table 3)) it was “Sensitive”; in the test with Escherichia coli (E. coli isolate 4 (Table 3)) it was “Sensitive”; in the test on Escherichia coli (E. coli isolate 5 (Table 3)) it was “Sensitive”; in the test on Escherichia coli (E. coli isolate JJ1887) it was “Resistant”. Besides, the “Molecular Antimicrobial Susceptibility Result” value in the test with pathogen of the specimen (setting [1]), with pathogen of the specimen (setting [3]), in the test with pathogen of the specimen (setting [5]), in the test on pathogen of the specimen (setting [7]), with pathogen of the specimen (setting [9]) and with pathogen of the specimen (setting [11]) was “Sensitive (Antimicrobial wells with pathogen load detected below the control wells (typically >2 cycle thresholds later) may be reported as Sensitive)” each time. For the same compound, the “Molecular Antimicrobial Susceptibility Result” value in the test with pathogen of the specimen (setting [13]) is “Sensitive (Antimicrobial wells with pathogen load detected below the control wells (typically >2 cycle thresholds later) may be reported as Sensitive)”. Moreover, the “Ct at Sensitive Breakpoint” value with pathogen of the specimen (setting [2]) was found to be 24.224; in the test with pathogen of the specimen (setting [4]), 25.270; in the test on pathogen of the specimen (setting [6]), 25.454; with pathogen of the specimen (setting [8]), 25.318; with pathogen of the specimen (setting [10]), 25.018; in the test with pathogen of the specimen (setting [12]), 24.069. In the test on pathogen of the specimen (setting [14]), the “Ct at Sensitive Breakpoint” value turned out to be 24.816.

In the case of Piperacillin/Tazobactam, the “Traditional Culture Results” value in the test on Escherichia coli (setting [15]) and with Escherichia coli (setting [16]) was “Sensitive” throughout. In addition, the “Traditional Culture Result” value in the test with Escherichia coli (E. coli isolate 1 (Table 3)), in the test with Escherichia coli (E. coli isolate 2 (Table 3)), in the test with Escherichia coli (E. coli isolate 3 (Table 3)), in the test with Escherichia coli (E. coli isolate 4 (Table 3)), in the test with Escherichia coli (E. coli isolate 5 (Table 3)) and in the test on Escherichia coli (E. coli isolate JJ1887) was “Sensitive” in each case. The “Molecular Antimicrobial Susceptibility Result” value in the test on pathogen of the specimen (setting [1]), in the test on pathogen of the specimen (setting [3]), in the test with pathogen of the specimen (setting [5]), in the test on pathogen of the specimen (setting [7]), in the test on pathogen of the specimen (setting [9]) and in the test on pathogen of the specimen (setting [11]) was “Sensitive (Antimicrobial wells with pathogen load detected below the control wells (typically >2 cycle thresholds later) may be reported as Sensitive)” each time. Besides, the “Molecular Antimicrobial Susceptibility Result” value in the test on pathogen of the specimen (setting [13]) is reported as “Sensitive (Antimicrobial wells with pathogen load detected below the control wells (typically >2 cycle thresholds later) may be reported as Sensitive)”. The “Ct at Sensitive Breakpoint” value stood at 20.904 in the test with pathogen of the specimen (setting [2]); 21.624 in the test on pathogen of the specimen (setting [4]); 21.570 in the test on pathogen of the specimen (setting [6]); 22.310 with pathogen of the specimen (setting [8]); 22.359 with pathogen of the specimen (setting [10]); 24.257 with pathogen of the specimen (setting [12]). Also, the “Ct at Sensitive Breakpoint” value with pathogen of the specimen (setting [14]) is 24.143.

Consider Trimethoprim/Sulfamethoxazole [TMP/SMX], for which the “Traditional Culture Result” value in the test with Escherichia coli (E. coli isolate 1 (Table 3)) was “Sensitive”; in the test on Escherichia coli (E. coli isolate 2 (Table 3)), “Sensitive”; in the test on Escherichia coli (E. coli isolate 3 (Table 3)) it was “Sensitive”; with Escherichia coli (E. coli isolate 4 (Table 3)), “Resistant”; with Escherichia coli (E. coli isolate 5 (Table 3)), “Sensitive”; with Escherichia coli (E. coli isolate JJ1887), “Resistant”. Further, the “Molecular Antimicrobial Susceptibility Result” value with pathogen of the specimen (setting [1]), in the test on pathogen of the specimen (setting [3]), with pathogen of the specimen (setting [5]), in the test with pathogen of the specimen (setting [7]), in the test on pathogen of the specimen (setting [9]) and with pathogen of the specimen (setting [11]) was “Sensitive (Antimicrobial wells with pathogen load detected below the control wells (typically >2 cycle thresholds later) may be reported as Sensitive)” each time. The “Molecular Antimicrobial Susceptibility Result” value in the test with pathogen of the specimen (setting [13]) was “Sensitive (Antimicrobial wells with pathogen load detected below the control wells (typically >2 cycle thresholds later) may be reported as Sensitive)”. The “Ct at Sensitive Breakpoint” value with pathogen of the specimen (setting [2]) is recorded as 24.603; in the test on pathogen of the specimen (setting [4]), 23.984; in the test with pathogen of the specimen (setting [6]), 24.482; with pathogen of the specimen (setting [8]), 24.129; with pathogen of the specimen (setting [10]), 23.878; in the test with pathogen of the specimen (setting [12]), 24.017. In the test with pathogen of the specimen (setting [14]), the “Ct at Sensitive Breakpoint” value came out at 23.552.
